Assay results from patent publication US20220354827A1 (priority 2019, published 2022).
Where two headings read alike, the source gives them in different places.

Experiments:
[1] = system: ATP-mediated elevation of cytosolic calcium in cells from Alzheimer's disease patients; conditions: for peak elevation of [Ca2+]c: ATP 30 μM, percentage of baseline
Description: The changes of cytosolic Ca^2+ concentration ([Ca^2+ ]c) of iPSCs after ATP exposure were measured using jellyfish photoprotein aequorin-based probe. 7.5-1.2×10^4 cells were plated on 12 mm coverslips in 24 well plate, grow to 50-60% confluence then transfected with the cyt-Aeq plasmid using Lipofectamine 3000 Transfection Reagent (Thermo Fisher Scientific) according to the manufacturer's instruction. The next day, the transfected cells were incubated with 5 μM coelenterazine for 1 h in modified Krebs-Ringer buffer (in mM: 140 NaCl, 2.8 KCl, 2 MgCl2, 10 Hepes, 11 glucoses, pH 7.4) supplemented with 1 mM CaCl2 and then were transferred to the perfusion chamber. All aequorin measurements were carried out in KRB, anesthetics were added to the same medium as specified. The experiments were performed in a custom-built aequorin recording system. For extracellular Ca^2+ free experiments, Ca^2+ free buffer was used (KRB without Ca^2+ with 5 mM EGTA). The experiments were terminated by lysing the cells with 100 μM digitonin in a hypotonic Ca^2+-rich solution (10 mM CaCl2 in H2O), thus discharging the remaining aequorin pool. The light signal was collected and calibrated into [Ca^2+ ]c values by an algorithm based on the Ca^2+ response curve of aequorin at physiological conditions of pH, [Mg^2+], and ionic strength, as previously described by Filadi R, et al., PNAS 2015; 201504880; Bonora M, et al., Nat Protoc 2013; 8:2105, each of which is incorporated by reference in its entirety.

[2] = system: induced pluripotent stem cells (iPSCs) from Alzheimer's disease (AD) patients; conditions: 24 h; for increase of MTT (cell viability): dantrolene 30 μM
Description: (§1) Human control (AG02261) and sporadic Alzheimer's disease (AG11414) iPSCs were obtained from John A. Kessler's lab. Familial Alzheimer's disease (GM24675) iPSCs were purchased from Coriell Institute. Each type of iPSC was generated from skin fibroblasts of one heathy human subject or one patient diagnosed of either SAD or FAD. The human pluripotent stem cells were maintained on Matrigel coated plates (BD Biosciences) in mTeSR™1 medium (Catalog #05850, Stem cell Technologies) and were cultured in a 5% CO2 humidified atmosphere at 37° C. The culture medium was changed every day.
The cell viability on different wells in 96-well plates was determined using the MTT (3-(4,5-dimethylthiazol-2-yl)-2,5-diphenyltetrazolium bromide, Sigma-Aldrich, St. Louis, Mo.) reduction assay at 24 h as previously described by Qiao H, et al., Anesthesiology 2017; 127:490; Ren G, et al., Sci Rep 2017; 7:12378, each of which is incorporated by reference in its entirety. After being washed with PBS, the samples were incubated with fresh culture medium containing MTT (0.5 mg/mL in the medium) at 37° C. for 4 h in the dark. The medium was then removed and formazan was solubilized with dimethyl sulfoxide (DMSO). The absorbance was measured at 540 nm with plate reader (Synergy™ H1 microplate reader, BioTek, Winooski, Vt.).

[3] = system: induced pluripotent stem cells (iPSCs) from Alzheimer's disease (AD) patients; conditions: FAD cells; vs DMSO vehicle
Description: as §1

iPSC from AD patients = conditions: compared with DMSO
Description: As described previously by Ren G, et al., Sci Rep 2017; 7:12378, which is incorporated by reference in its entirety, LysoTracker® Red DND-99 (Molecular Probe, Eugene, Oreg.) probe stock solution was diluted to a working concentration of 50 nM in HBSS+. IPSCs cells were plated on coverslips coated with Matrigel (BD Biosciences) in mTeSR™1 (Catalog #05850). After being washed three times with HBSS+, the cells were loaded with pre-warmed (37° C.) probe containing HBSS+ and incubated for 1 h at 37° C. Fresh medium was added to replace the labeling solution. The cells were observed by a fluorescent microscope fitted with the correct filter set for the probe used, to determine if the cells were sufficiently fluorescent. LysoTracker Red used an […].

[4] = system: cortical neurons generated from SAD and FAD patient iPSCs; conditions: dantrolene for 3 days
[5] = system: cortical neurons generated from SAD and FAD patient iPSCs; conditions: FAD cells; dantrolene treatment
[6] = system: NMDA mediated elevation of cytosolic Ca2+ concentrations in iPSC from AD patients
[7] = system: vacuolar-type H+-ATPase (V-ATPase) in lysosomes (LAMP-2) of iPSC; conditions: dantrolene 30 μM
[8] = system: LC3II in iPSCs from AD patients
Description: Western blotting was performed according to the standard procedure. Total protein extracts from iPSCs cells were obtained by lysing the cells in ice-cold lysis buffer (50 mM Tris-HCl, 150 mM NaCl and 1% Triton X-100) in the presence of a cocktail of protease inhibitors, as described by Hollomon, M G, et al., BMC Cancer 2013; 13:500, which is incorporated by reference in its entirety. After centrifugation, the supernatant was collected, and the total protein was quantified using a bicinchoninic acid (BCA) protein assay kit (Thermo Scientific, Rockford, Ill.). Equal amounts of protein for each lane were loaded and separated on 15% sodium dodecyl sulfate-polyacrylamide gel electrophoresis (SDSPAGE).
After electrophoresis, proteins were transferred onto a polyvinylidene fluoride (PVDF) membrane. The membranes were blocked with 5% fat-free milk dissolved in PBS-T for 1 h at room temperature, and then stained with primary antibody at 4° C. overnight. After the wash with PBS-T, the membranes were incubated with secondary antibodies (HRP conjugated anti-rabbit and anti-mouse IgG) at 1:1,000 dilutions, and β-actin served as a loading control. Signals were detected with an enhanced chemiluminescence detection system (Millipore, Billerica, Mass.) and quantified by scanning densitometry.

[9] = intranasal 5 mg/kg, 3 times/wk, 3 weeks; vs vehicle
[10] = intranasal 5 mg/kg, 3 times/wk, 4 months; vs vehicle
5XFAD mice = conditions: for hippocampus-dependent memory (CFC) vs untreated 5XFAD controls / hippocampus-independent memory (FC-cued) vs controls: 6 months of age
[11] = system: wild type (WT) and 5XFAD (TG) mice; conditions: all groups
[12] = mouse, in vivo
[13] = all groups, 10 months of age
[14] = 11 months of age
[15] = not given; remark: listed apart in the source
[16] = system: amyloid plaques in hippocampus and cortex of 5XFAD mice; conditions: IN-DAN, SQ-DAN, ETG and LTG
[17] = system: iPSCs derived immature neurons
[18] = system: glutamate mediated elevation of mitochondrial calcium concentration in iPSC-derived neurons; conditions: FAD neurons; glutamate 20 mM; dantrolene 20 μM pretreatment 1 hour

Compound: Nc1ncnc2c1ncn2[C@@H]1O[C@H](COP(=O)(O)OP(=O)(O)OP(=O)(O)O)[C@@H](O)[C@H]1O [ATP, adenosine triphosphate]
- peak elevation of [Ca2+]c ([1]; FAD cells): 128.3%
- peak elevation of [Ca2+]c ([1]; SAD cells): 140.4%
- peak elevation of [Ca2+]c ([1]; control cells): 84.1%

Compound: O=C1CN(/N=C/c2ccc(-c3ccc([N+](=O)[O-])cc3)o2)C(O)=N1 [dantrolene]
- increase of MTT (cell viability) ([2]; iPSC FAD): 67.6%
- increase of MTT (cell viability) ([2]; iPSC SAD): 15.1%
- cell viability (MTT) ([2]; iPSCs from healthy human subjects (CON), 30 μM): did not affect
- cell proliferation, percentage of BrdU-positive cells [3]: greater proliferation
- lysotracker-positive acidic vesicles (iPSC from AD patients; FAD cells): significantly increased
- lysotracker-positive acidic vesicles (iPSC from AD patients; SAD cells): significantly increased
- mean number of dendrite intersections at around 150 μM from soma ([4]; FAD cells): significantly greater
- mean number of dendrite intersections at around 150 μM from soma ([4]; SAD cells): significantly greater
- PSD95 density [5]: significantly greater
- synapsin-1 density [5]: significantly increased
- NMDA-mediated elevation of [Ca2+]c and AUC [6]: ameliorated
- integrated cytosolic Ca2+ (AUC), ATP+Ca2++DAN vs ATP+Ca2+ ([1]; FAD cells, dantrolene 30 μM pretreatment, 1 mM extracellular Ca2+): significantly reduced
- ATP-mediated peak or overall elevation of [Ca2+]c ([1]; absence of extracellular Ca2+ influx, SAD/FAD cells, not statistically significant): only trended to inhibit
- integrated cytosolic Ca2+ (AUC), ATP+Ca2++DAN vs ATP+Ca2+ ([1]; control cells, dantrolene 30 μM pretreatment, 1 mM extracellular Ca2+): significantly reduced
- peak cytosolic [Ca2+]c, ATP+Ca2++DAN ([1]; dantrolene 30 μM pretreatment, 1 mM extracellular Ca2+, between groups): no significant differences
- V-ATPase in lysosomes (LAMP-2) compared with controls ([7]; FAD cells): no longer significantly reduced
- V-ATPase in lysosomes (LAMP-2) compared with controls ([7]; SAD cells): remained significantly lower
- increase of LC3II level ([8]; FAD iPSCs, P<0.001): 49.4%
- increase of LC3II level ([8]; SAD iPSCs, P=0.3483): 47.3%
- olfaction, time to retrieve buried food [9]: No significant differences
- motor function, time spent on the rotarod [10]: No significant differences
- hippocampus-dependent memory (CFC) vs untreated 5XFAD controls (5XFAD mice; IN-DAN, ETG): significantly greater memory
- hippocampus-independent memory (FC-cued) vs controls (5XFAD mice; IN-DAN, ETG): significantly improved
- hippocampus-dependent memory (CFC) vs 5XFAD controls (5XFAD mice; IN-DAN, ETG, 11 months of age): significantly greater
- hippocampus-independent memory (FC-cued) vs 5XFAD CON (5XFAD mice; IN-DAN, ETG, 11 months of age): significantly better
- hippocampus-independent memory (FC-cued) vs 5XFAD CON (5XFAD mice; IN-DAN, LTG, 11 months): No significant memory improvement
- hippocampus-dependent memory (CFC) vs 5XFAD CON (5XFAD mice; IN-DAN, LTG, 11 months of age): significantly improved
- hippocampus-dependent memory (CFC) vs untreated 5XFAD controls (5XFAD mice; SQ-DAN, ETG): significantly greater memory
- hippocampus-independent memory (FC-cued) vs controls (5XFAD mice; SQ-DAN, ETG): significantly improved
- hippocampus-independent memory (FC-cued) vs 5XFAD CON (5XFAD mice; SQ-DAN, ETG, 11 months of age): trended to improve memory but were not statistically different
- hippocampus-independent memory (FC-cued) vs 5XFAD CON (5XFAD mice; SQ-DAN, LTG, 11 months): No significant memory improvement
- hippocampus-dependent memory (CFC) vs 5XFAD CON (5XFAD mice; SQ-DAN, LTG, 11 months of age): trended to be better but was not statistically significant
- number of times the animals crossed the platform ([11]; 10 months): no significant differences
- percent time in the target quadrant (probe trial) vs controls ([11]; 10 months): no significant differences
- escape latency in place trials vs controls ([11]; 10 months of age): no significant differences
- motor function (rotarod) vs control group [12]: No significant differences
- olfaction (buried food test) ([13]; 5XFAD): No significant differences
- olfaction (buried food test) ([13]; WT): No significant differences
- plasma alanine aminotransferase (ALT) activity vs control group (5XFAD, 6-month intranasal treatment in LTG): significantly increased
- plasma alanine aminotransferase (ALT) activity vs control group (5XFAD, other treatment groups): No significant differences
- plasma alanine aminotransferase (ALT) activity vs control group (WT, 6-month subcutaneous treatment in LTG): significantly increased
- plasma alanine aminotransferase (ALT) activity vs control group (WT, other treatment group): No significant difference
- hepatic pathology (H&E stained sections) ([14]; 5XFAD ETG mice): No gross differences
- hepatic pathology (H&E stained sections) ([14]; WT ETG mice): No gross differences
- bodyweight growth curve ([15]; 5XFAD mice, ETG groups): No significant differences
- body weight ([15]; WT, 12 months of age): No significant difference
- number of amyloid plaques per area (mm^2) in hippocampus and cortex [16]: No significant differences
- percent area of the hippocampus and cortex occupied by plaques ([16]; vs control): No significant differences
- glutamate-induced reduction of cytosolic ATP concentration ([17]; neurons derived from AD patients): significantly inhibited
- glutamate-induced overall exposure (AUC) of mitochondrial calcium concentration [18]: abolished
- glutamate-induced peak elevation of mitochondrial calcium concentration [18]: abolished

Compound: bafilomycin
- LC3II level on co-treatment with dantrolene ([8]; SAD and FAD iPSCs, vs dantrolene alone): further elevated

Compound: glutamate
- cytosolic ATP production ([17]; glutamate 20-30 mM, 24 hours): dose dependently decreased
